The values that follow are results of earlier work, collected in publication PMC9186412, “Rational Framework for the Design of Trp- and Arg-Rich Peptide Antibiotics Against Multidrug-Resistant Bacteria” (Frontiers in Microbiology, 2022).

Read-outs that look alike come from different tables or passages of the source.

Data set [1] has as its system CDC AR isolates. Set-up: key: S (green), susceptible; I (blue), intermediate; R (red), resistant. As to conditions: data provided by the CDC, ref CDC, cited from earlier work. The source says: Supplement Table_3.XLSX, sheet "CDC AR isolates profiles" | column: G(-) strains
Data set [2] concerns CDC AR isolates. Set-up: key: S (green), susceptible; I (blue), intermediate; R (red), resistant. As to conditions: data provided by the CDC, ref CDC, cited from earlier work. The source holds these as a separate data set.
Where [3] appears, read: Acinetobacter baumannii AB273, CDC AR isolate.
The mark [4] stands for this setting: Acinetobacter baumannii AB274, CDC AR isolate.
Setting [5] is: Acinetobacter baumannii AB275, CDC AR isolate.
Where [6] appears, read: Acinetobacter baumannii AB276, CDC AR isolate.
[7] abbreviates: Enterobacter cloacae E62, CDC AR isolate.
The mark [8] stands for this setting: Enterobacter cloacae E544, CDC AR isolate.
[9] abbreviates: Enterobacter cloacae E545, CDC AR isolate.
Setting [10] is: Enterobacter cloacae E546, CDC AR isolate.
Setting [11] is: Escherichia coli EC541, CDC AR isolate.
Setting [12] is: Escherichia coli EC543, CDC AR isolate.
Setting [13] is: Escherichia coli EC544, CDC AR isolate.
Setting [14] is: Escherichia coli EC549, CDC AR isolate.
The mark [15] stands for this setting: Klebsiella pneumoniae KP542, CDC AR isolate.
Setting [16] is: Klebsiella pneumoniae KP548, CDC AR isolate.
Where [17] appears, read: Klebsiella pneumoniae KP550, CDC AR isolate.
[18] abbreviates: Klebsiella pneumoniae KP552, CDC AR isolate.
The mark [19] stands for this setting: Pseudomonas aeruginosa PA229, CDC AR isolate.
[20] abbreviates: Pseudomonas aeruginosa PA230, CDC AR isolate.
Setting [21] is: Pseudomonas aeruginosa PA231, CDC AR isolate.
Setting [22] is: Pseudomonas aeruginosa PA232, CDC AR isolate.
Where [23] appears, read: Pseudomonas aeruginosa PA239, CDC AR isolate.
Where [24] appears, read: Staphylococcus aureus SA462, CDC AR isolate.
Setting [25] is: Staphylococcus aureus SA463, CDC AR isolate.
Setting [26] is: Staphylococcus aureus SA561, CDC AR isolate.
Where [27] appears, read: Staphylococcus aureus SA461, CDC AR isolate.
Where [28] appears, read: Enterococcus faecium EF500, CDC AR isolate.
Where [29] appears, read: Enterococcus faecium EF671, CDC AR isolate.
Setting [30] is: Enterococcus faecium EF672, CDC AR isolate.
[31] abbreviates: Enterococcus faecium EF673, CDC AR isolate.

For `CNC(C)C1CCC(N)C(OC2C(N)CC(N)C(OC3OCC(C)(O)C(NC)C3O)C2O)O1` (stereo not drawn) [Gentamicin], the Antibiotic susceptibility profile entry with CDC AR isolates [1] (setting [3]) was “R”; in the data set on CDC AR isolates [1] (setting [4]), “R”; in the data set with CDC AR isolates [1] (setting [5]), “R”; in the data set with CDC AR isolates [1] (setting [6]), “R”; with CDC AR isolates [1] (setting [7]) it was “S”; with CDC AR isolates [1] (setting [8]) it was “R”. In addition, the Antibiotic susceptibility profile entry in the data set on CDC AR isolates [1] (setting [9]) is “R”; in the data set on CDC AR isolates [1] (setting [10]), “S”; with CDC AR isolates [1] (setting [11]), “S”; with CDC AR isolates [1] (setting [12]), “R”; in the data set with CDC AR isolates [1] (setting [13]) it was “R”; in the data set on CDC AR isolates [1] (setting [14]), “S”. The Antibiotic susceptibility profile entry in the data set with CDC AR isolates [1] (setting [15]) is reported as “R”; with CDC AR isolates [1] (setting [16]), “S”; with CDC AR isolates [1] (setting [17]) it was “R”; with CDC AR isolates [1] (setting [18]) it was “S”; with CDC AR isolates [1] (setting [19]), “S”; with CDC AR isolates [1] (setting [20]), “R”. Besides, the Antibiotic susceptibility profile entry is recorded as “R” with CDC AR isolates [1] (setting [21]); “R” in the data set on CDC AR isolates [1] (setting [22]); “R” with CDC AR isolates [1] (setting [23]); “S” in the data set on CDC AR isolates [1] (setting [24]); “S” in the data set on CDC AR isolates [1] (setting [25]); “S” in the data set on CDC AR isolates [1] (setting [26]). In the data set with CDC AR isolates [2] (setting [27]), the Antibiotic susceptibility profile entry is listed as “S”.

In the case of `C[C@H]1COc2c(N3CCN(C)CC3)c(F)cc3c(=O)c(C(=O)O)cn1c23` [Levofloxacin], the Antibiotic susceptibility profile entry in the data set on CDC AR isolates [1] (setting [3]), in the data set with CDC AR isolates [1] (setting [4]), with CDC AR isolates [1] (setting [5]), in the data set with CDC AR isolates [1] (setting [6]), in the data set on CDC AR isolates [1] (setting [7]) and with CDC AR isolates [1] (setting [8]) was “R” throughout. Further, the Antibiotic susceptibility profile entry is “S” with CDC AR isolates [1] (setting [9]); “R” in the data set with CDC AR isolates [1] (setting [10]); “R” in the data set on CDC AR isolates [1] (setting [28]); “S” with CDC AR isolates [1] (setting [29]); “S” in the data set on CDC AR isolates [1] (setting [30]); “R” in the data set on CDC AR isolates [1] (setting [11]). The Antibiotic susceptibility profile result with CDC AR isolates [1] (setting [12]), with CDC AR isolates [1] (setting [13]), in the data set on CDC AR isolates [1] (setting [14]), with CDC AR isolates [1] (setting [15]), with CDC AR isolates [1] (setting [16]) and with CDC AR isolates [1] (setting [17]) was “R” each time. Moreover, the Antibiotic susceptibility profile entry in the data set on CDC AR isolates [1] (setting [18]), in the data set with CDC AR isolates [1] (setting [19]), in the data set with CDC AR isolates [1] (setting [20]), in the data set on CDC AR isolates [1] (setting [21]), in the data set with CDC AR isolates [1] (setting [22]) and in the data set on CDC AR isolates [1] (setting [23]) was “R” each time. For the same compound, the Antibiotic susceptibility profile entry with CDC AR isolates [1] (setting [24]) is “R”; in the data set with CDC AR isolates [1] (setting [25]) it was “S”; in the data set on CDC AR isolates [1] (setting [26]), “R”; in the data set on CDC AR isolates [2] (setting [31]) it was “S”; in the data set on CDC AR isolates [2] (setting [27]), “R”.

For the compound `CC(=O)NC[C@H]1CN(c2ccc(N3CCOCC3)c(F)c2)C(=O)O1` [Linezolid], the Antibiotic susceptibility profile entry in the data set on CDC AR isolates [1] (setting [28]), in the data set on CDC AR isolates [1] (setting [29]), in the data set on CDC AR isolates [1] (setting [30]), in the data set on CDC AR isolates [1] (setting [24]), in the data set with CDC AR isolates [1] (setting [25]) and with CDC AR isolates [1] (setting [26]) was “S” in each case. In addition, the Antibiotic susceptibility profile result with CDC AR isolates [2] (setting [31]) and with CDC AR isolates [2] (setting [27]) was “S” each time.

For the compound `CO[C@H]1/C=C/O[C@@]2(C)Oc3c(C)c(O)c4c(O)c(c(/C=N/N5CCN(C)CC5)c(O)c4c3C2=O)NC(=O)/C(C)=C\C=C\[C@H](C)[C@H](O)[C@@H](C)[C@@H](O)[C@@H](C)[C@H](OC(C)=O)[C@@H]1C` [Rifampin], the Antibiotic susceptibility profile result with CDC AR isolates [1] (setting [28]) was “R”; with CDC AR isolates [1] (setting [29]), “I”; in the data set on CDC AR isolates [1] (setting [30]), “I”; in the data set on CDC AR isolates [1] (setting [24]), “S”; with CDC AR isolates [1] (setting [25]), “S”; with CDC AR isolates [2] (setting [31]), “S”. The Antibiotic susceptibility profile entry in the data set on CDC AR isolates [2] (setting [27]) is reported as “S”.
